# Calls of active or inactive are those of the source. No cut-off for these calls is given here. Where a SMILES comes first, the peptide text is derived from it.
# Test: Inhibition of HIV1 Tat/TAR interaction at 1 to 400 uM by FRET based competition assay
row,Structure (SMILES),inhibition
1,NCCCC[C@H](NC(=O)[C@@H](N)Cc1ccccc1)C(=O)N[C@@H](Cc1ccccc1)C(=O)O (H-Phe-Lys-Phe-OH),Active
2,N=C(N)NCCC[C@H](NC(=O)CN(CCNC(=O)[C@@H](N)CCCNC(=N)N)C(=O)[C@H](CCCN(C(=N)NC(=O)OCc1ccccc1)C(=O)OCc1ccccc1)NC(=O)OCc1ccccc1)C(=O)O,Active
3,N=C(N)NCCC[C@H](NC(=O)CN(CCNC(=O)[C@@H](N)CCCCN)C(=O)[C@H](CCCN(C(=N)NC(=O)OCc1ccccc1)C(=O)OCc1ccccc1)NC(=O)OCc1ccccc1)C(=O)O,Active
4,NCCCC[C@H](NC(=O)[C@H](Cc1ccccc1)NC(=O)[C@@H](N)Cc1ccccc1)C(=O)O (H-Phe-Phe-Lys-OH),Active
5,N=C(N)NCCC[C@H](NC(=O)[C@H](CCCNC(=N)N)NC(=O)[C@@H](N)CCCNC(=N)N)C(=O)O (H-Arg-Arg-Arg-OH),Active
6,N=C(N)NCCC[C@H](N)C(=O)N[C@@H](CCCCN)C(=O)N[C@@H](CCCCN)C(=O)O (H-Arg-Lys-Lys-OH),Active
7,C[C@H](NC(=O)[C@H](CCCCN)NC(=O)[C@@H](N)CCCCN)C(=O)O (H-Lys-Lys-Ala-OH),Active
8,NCCCC[C@H](NC(=O)[C@H](CCCCN)NC(=O)[C@@H](N)Cc1ccccc1)C(=O)O (H-Phe-Lys-Lys-OH),Active
9,C[C@H](N)C(=O)NCCN(CC(=O)N[C@@H](Cc1ccccc1)C(=O)O)C(=O)[C@H](Cc1ccccc1)NC(=O)OCc1ccccc1,Active
10,N=C(N)NCCC[C@H](NC(=O)[C@H](CCCCN)NC(=O)[C@@H](N)CCCNC(=N)N)C(=O)O (H-Arg-Lys-Arg-OH),Active
11,N[C@@H](Cc1ccccc1)C(=O)NCCN(CC(=O)N[C@@H](Cc1ccccc1)C(=O)O)C(=O)[C@H](Cc1ccccc1)NC(=O)OCc1ccccc1,Active
12,N=C(N)NCCC[C@H](NC(=O)CN(CCNC(=O)[C@@H](N)Cc1ccccc1)C(=O)[C@H](CCCN(C(=N)NC(=O)OCc1ccccc1)C(=O)OCc1ccccc1)NC(=O)OCc1ccccc1)C(=O)O,Active
13,C[C@H](NC(=O)[C@@H](N)CCCNC(=N)N)C(=O)N[C@@H](CCCCN)C(=O)O (H-Arg-Ala-Lys-OH),Active
14,C[C@H](NC(=O)[C@@H](N)Cc1ccccc1)C(=O)N[C@@H](Cc1ccccc1)C(=O)O (H-Phe-Ala-Phe-OH),Active
15,N[C@@H](Cc1ccccc1)C(=O)N[C@@H](Cc1ccccc1)C(=O)N[C@@H](Cc1ccccc1)C(=O)O (H-Phe-Phe-Phe-OH),Active
16,C[C@H](N)C(=O)NCCN(CC(=O)N[C@@H](CCCNC(=N)N)C(=O)O)C(=O)[C@H](CCCN(C(=N)NC(=O)OCc1ccccc1)C(=O)OCc1ccccc1)NC(=O)OCc1ccccc1,Active
17,C[C@H](NC(=O)[C@H](Cc1ccccc1)NC(=O)[C@@H](N)CCCCN)C(=O)O (H-Lys-Phe-Ala-OH),Active
18,NCCCC[C@H](NC(=O)CN(CCNC(=O)[C@@H](N)Cc1ccccc1)C(=O)[C@H](CCCCNC(=O)OCc1ccccc1)NC(=O)OCc1ccccc1)C(=O)O,Active
19,C[C@H](NC(=O)[C@H](C)NC(=O)[C@@H](N)CCCCN)C(=O)O (H-Lys-Ala-Ala-OH),Active
20,N=C(N)NCCC[C@H](NC(=O)[C@@H](N)Cc1ccccc1)C(=O)N[C@@H](Cc1ccccc1)C(=O)O (H-Phe-Arg-Phe-OH),Active
21,N=C(N)NCCC[C@H](NC(=O)[C@@H](N)Cc1ccccc1)C(=O)N[C@@H](CCCCN)C(=O)O (H-Phe-Arg-Lys-OH),Active
22,N=C(N)NCCC[C@H](NC(=O)[C@@H](N)CCCNC(=N)N)C(=O)N[C@@H](CCCCN)C(=O)O (H-Arg-Arg-Lys-OH),Active

# Second part, the molecule after the results:
row,inhibition,Structure (SMILES)
1,Active,N=C(N)NCCC[C@H](N)C(=O)NCCN(CC(=O)N[C@@H](Cc1ccccc1)C(=O)O)C(=O)[C@H](Cc1ccccc1)NC(=O)OCc1ccccc1
2,Active,C[C@H](NC(=O)CN(CCNC(=O)[C@@H](N)CCCCN)C(=O)[C@H](C)NC(=O)OCc1ccccc1)C(=O)O
3,Active,C[C@H](N)C(=O)NCCN(CC(=O)N[C@@H](CCCCN)C(=O)O)C(=O)[C@H](CCCCNC(=O)OCc1ccccc1)NC(=O)OCc1ccccc1
4,Active,C[C@H](NC(=O)CN(CCNC(=O)[C@@H](N)Cc1ccccc1)C(=O)[C@H](C)NC(=O)OCc1ccccc1)C(=O)O
5,Active,C[C@H](NC(=O)CN(CCNC(=O)[C@@H](N)CCCNC(=N)N)C(=O)[C@H](C)NC(=O)OCc1ccccc1)C(=O)O
6,Active,NCCCC[C@H](N)C(=O)NCCN(CC(=O)N[C@@H](Cc1ccccc1)C(=O)O)C(=O)[C@H](Cc1ccccc1)NC(=O)OCc1ccccc1
7,Active,N=C(N)NCCC[C@H](N)C(=O)N[C@@H](Cc1ccccc1)C(=O)N[C@@H](CCCCN)C(=O)O (H-Arg-Phe-Lys-OH)
8,Active,N=C(N)NCCC[C@H](N)C(=O)NCCN(CC(=O)N[C@@H](CCCCN)C(=O)O)C(=O)[C@H](CCCCNC(=O)OCc1ccccc1)NC(=O)OCc1ccccc1
9,Active,NCCCC[C@H](NC(=O)CN(CCNC(=O)[C@@H](N)CCCCN)C(=O)[C@H](CCCCNC(=O)OCc1ccccc1)NC(=O)OCc1ccccc1)C(=O)O
10,Active,C[C@H](N)C(=O)NCCN(CC(=O)N[C@@H](C)C(=O)O)C(=O)[C@H](C)NC(=O)OCc1ccccc1
11,Active,N=C(N)NCCC[C@H](NC(=O)[C@H](Cc1ccccc1)NC(=O)[C@@H](N)CCCNC(=N)N)C(=O)O (H-Arg-Phe-Arg-OH)

# Reference: ChEMBL document CHEMBL1268951, “Polyamide amino acids trimers as TAR RNA ligands and anti-HIV agents” (Bioorg Med Chem, 2010)
